Each structure is given as a SMILES string. The source made the active and inactive calls.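 How the source made its calls: active means fitted curve reaches 40% activation below the top valid tested dose, in every test run; inconclusive means test runs disagree on the call; inactive means the rest, including effects opposite to the expected direction.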

A short description of one assay: E-selectin inducers in HUVECs, dose response, imaging, HUVEC, cherry-picked samples (AID 977605).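 Further: signal is the share of imaged cells scored positive for E-selectin.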 To be noted: HUVEC E-selectin immunostaining, at 19.5 µM (top of the series), percent of TNF-alpha response over vehicle.
Take `Cc1noc(C)c1S(=O)(=O)Nc1ccc2c(c1)C(=O)N([C@@H](C)CO)C[C@H](C)[C@H](CN(C)Cc1ccc3c(c1)OCO3)O2`: the activation was -0.065% (inactive).
Regarding `O=S(=O)(Nc1cccc(Oc2cnccn2)c1)c1ccc(F)cc1`, the activation is 0.221% (inactive).
Regarding `C[C@H]1CN([C@@H](C)CO)C(=O)Cc2cc(NS(=O)(=O)c3ccc(F)cc3)ccc2O[C@@H]1CN(C)S(=O)(=O)c1ccc(Cl)cc1`, the activation is -0.047% (inactive).
Consider `O=C(COc1ccc(Cl)cc1)Nc1nnc(S(=O)(=O)N2CCCCCC2)s1`, for which the activation was 1.11% (inactive).
The same measure, in the same setting: then `C[C@H]1CN([C@@H](C)CO)C(=O)c2cc(Br)cnc2O[C@H]1CN(C)Cc1cccc(F)c1`, with -0.038% (inactive).
As to `C[C@@H]1CN([C@H](C)CO)C(=O)c2cc(C3=CCCC3)cnc2O[C@@H]1CN(C)C(=O)Nc1ccccc1`, the activation is 0.119% (inactive).
Take `Cc1noc(C)c1S(=O)(=O)N(C)C[C@@H]1Oc2ccc(NC(=O)Nc3ccc(F)cc3)cc2CC(=O)N([C@@H](C)CO)C[C@@H]1C`: the activation was -0.013% (inactive).
Same read-out and setting: then `Cc1c(O)nc2ccccn2c1=O`, with 0.171% (inactive).
The same measure, in the same setting: then `C[C@H](CO)N1C[C@H](C)[C@@H](CN(C)Cc2ccc(C(=O)O)cc2)Oc2ccc(NC(=O)Nc3ccc(F)cc3)cc2CC1=O`, with 0.279% (inactive); and `C[C@@H]1CN([C@@H](C)CO)C(=O)c2cccc(NS(=O)(=O)c3ccc(F)cc3)c2O[C@H]1CN(C)Cc1ccc(C(=O)O)cc1`, with -0.15% (inactive).
With `CCc1ccc(N2CC(C(=O)Nc3ccc(F)cc3)CC2=O)cc1` (stereo unspecified), the activation is 0.132% (inactive).
Still for that read-out and setting: then `COc1ccc(S(=O)(=O)Nc2ccc3c(c2)CC(=O)N([C@H](C)CO)C[C@@H](C)[C@@H](CN(C)C(=O)NC2CCCCC2)O3)cc1`, with 0.114% (inactive).
With `C[C@@H]1CN([C@H](C)CO)C(=O)Cc2cc(NC(=O)Cc3ccccc3)ccc2O[C@H]1CN(C)S(C)(=O)=O`, the activation was -0.135% (inactive).
Turning to `Cc1cc(NC(=O)c2ccccc2F)n(C(C)(C)C)n1`, the activation is 0.21% (inactive).
Still for that read-out and setting: with `CC(C)NC(=O)Nc1ccc2c(c1)C(=O)N([C@@H](C)CO)C[C@@H](C)[C@H](CN(C)Cc1ccc(C(=O)O)cc1)O2` the figure was -0.098% (inactive); with `C[C@@H]1CN([C@H](C)CO)S(=O)(=O)c2ccc(-c3ccccc3)cc2O[C@H]1CN(C)S(C)(=O)=O`, -0.007% (inactive).
Regarding `C[C@H]1CN([C@@H](C)CO)C(=O)Cc2cc(NC(=O)Nc3cccc4ccccc34)ccc2O[C@@H]1CN(C)C(=O)Nc1ccc(C(F)(F)F)cc1`, the activation was 14.8% (inactive).
Still for that read-out and setting: then `COc1ccccc1N(C(=O)c1snc(C(N)=O)c1N)C(C(=O)NCc1ccccc1)c1ccc(C)o1` (stereo unspecified), with -0.235% (inactive); and `O=C(O)CC1C(=O)NCCN1Cc1cccs1` (stereo unspecified), with -0.112% (inactive); and `CCCN(C)C[C@@H]1Oc2ncc(-c3ccccc3)cc2C(=O)N([C@H](C)CO)C[C@@H]1C`, with -0.269% (inactive).
On the same count and under the same terms, with `CCCCSCCCNC(=O)C1CCC(CNS(=O)(=O)c2ccc(NC(C)=O)cc2)CC1` (stereo unspecified) the figure was 0.405% (inactive).
Turning to `COc1ccc(S(=O)(=O)N2CCOCC2)cc1C(=O)NCc1ccccc1CN1CCCC1`, the activation is 0.269% (inactive).
Turning to `C[C@H]1CN([C@@H](C)CO)C(=O)c2cccc(NS(=O)(=O)c3ccc(F)cc3)c2O[C@H]1CN(C)S(=O)(=O)c1cccs1`, the activation was -0.103% (inactive).
The same measure, in the same setting: then `CCNS(=O)(=O)c1ccc(CCC(=O)N2CCN(c3ccc(OC)cc3)CC2)cc1`, with -0.027% (inactive).

Staying with this assay, now noted: HUVEC E-selectin immunostaining, at 21 µM (top of the series), percent of TNF-alpha response over vehicle.
On to `C[C@H]1CN([C@@H](C)CO)C(=O)Cc2cc(NC(=O)Nc3ccc4c(c3)OCO4)ccc2O[C@H]1CN(C)S(=O)(=O)c1cn(C)cn1`, for which the activation is -0.009% (inactive).
For `Cc1noc(C)c1S(=O)(=O)Nc1ccc2c(c1)C(=O)N([C@H](C)CO)C[C@@H](C)[C@H](CN(C)Cc1ccncc1)O2`, the activation is -0.191% (inactive).

The values above are taken from PubChem BioAssay AID977605 (Broad Institute, 2014).
